Results taken from patent US10357493B2, “Metalloenzyme inhibitor compounds” (Selenity Therapeutics (Bermuda), Ltd., priority 2017, dated 2019).

Experiments:
[1] = target: HDAC1 (Homo sapiens (Human), UniProt Q13547); assay: HDAC1 enzymatic assay; format: biochemical; conditions: read-out: Human HDAC1 IC50
How it was run: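 HDAC1 activity was measured in duplicate 50 μl reactions containing 0.5 ng HDAC1, 10 uM of HDAC substrate, and test compound in buffer (50 mM Tris-HCl, pH 7.4, 137 mM NaCl, 2.7 mM KCl, 0.05% Tween 20, 5 μg BSA) with 1% DMSO, incubated 17 hours at room temperature. HDAC Developer was then added for 20 minutes and fluorescence read at 360/460 nm.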

[2] = target: HDAC6 (Homo sapiens (Human), UniProt Q9UBN7); assay: HDAC6 enzymatic assay; format: biochemical; conditions: read-out: Human HDAC6 IC50
HDAC6, sequence (Q9UBN7 whole entry): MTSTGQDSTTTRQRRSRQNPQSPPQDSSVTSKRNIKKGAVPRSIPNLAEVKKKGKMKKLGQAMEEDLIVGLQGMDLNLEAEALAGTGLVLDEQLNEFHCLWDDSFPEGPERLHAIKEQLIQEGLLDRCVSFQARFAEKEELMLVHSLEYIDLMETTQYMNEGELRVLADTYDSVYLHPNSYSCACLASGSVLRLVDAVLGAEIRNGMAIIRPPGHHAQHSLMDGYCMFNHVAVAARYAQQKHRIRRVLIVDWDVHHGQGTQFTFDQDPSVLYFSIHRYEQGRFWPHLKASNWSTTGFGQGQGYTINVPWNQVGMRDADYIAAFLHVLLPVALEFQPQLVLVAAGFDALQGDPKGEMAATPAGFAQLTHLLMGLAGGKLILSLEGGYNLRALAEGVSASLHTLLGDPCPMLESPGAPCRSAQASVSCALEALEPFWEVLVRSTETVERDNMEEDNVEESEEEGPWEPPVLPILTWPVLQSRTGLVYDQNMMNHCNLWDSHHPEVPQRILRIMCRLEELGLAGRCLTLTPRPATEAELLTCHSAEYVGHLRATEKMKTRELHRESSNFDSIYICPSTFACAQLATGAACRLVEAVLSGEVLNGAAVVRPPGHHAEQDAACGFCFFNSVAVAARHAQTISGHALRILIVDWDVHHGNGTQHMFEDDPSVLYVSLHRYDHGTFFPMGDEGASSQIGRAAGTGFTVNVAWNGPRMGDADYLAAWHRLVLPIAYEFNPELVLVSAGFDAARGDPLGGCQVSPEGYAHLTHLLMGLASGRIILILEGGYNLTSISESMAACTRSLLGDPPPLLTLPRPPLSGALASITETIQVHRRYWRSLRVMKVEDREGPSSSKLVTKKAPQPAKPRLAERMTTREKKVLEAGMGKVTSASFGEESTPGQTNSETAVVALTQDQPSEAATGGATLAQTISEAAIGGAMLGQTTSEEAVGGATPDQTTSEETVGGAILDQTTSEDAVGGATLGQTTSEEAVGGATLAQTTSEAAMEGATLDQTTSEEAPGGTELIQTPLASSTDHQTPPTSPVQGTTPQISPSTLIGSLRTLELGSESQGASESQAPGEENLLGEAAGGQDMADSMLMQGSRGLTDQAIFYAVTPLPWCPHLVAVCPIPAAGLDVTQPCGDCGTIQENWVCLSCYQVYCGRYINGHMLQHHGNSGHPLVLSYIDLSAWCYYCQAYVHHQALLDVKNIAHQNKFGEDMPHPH
How it was run: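 Human HDAC6 activity was measured in duplicate 50 μl reactions holding 2 ng HDAC6, 10 uM of HDAC substrate and test compound in HDAC assay buffer (50 mM Tris-HCl, pH 7.4, 137 mM NaCl, 2.7 mM KCl, 0.05% Tween 20, 5 μg BSA) with 1% DMSO, for 17 hours at room temperature. HDAC Developer was added for 20 minutes before reading fluorescence at 360/460 nm.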

HDAC1, sequence (Q13547 whole entry): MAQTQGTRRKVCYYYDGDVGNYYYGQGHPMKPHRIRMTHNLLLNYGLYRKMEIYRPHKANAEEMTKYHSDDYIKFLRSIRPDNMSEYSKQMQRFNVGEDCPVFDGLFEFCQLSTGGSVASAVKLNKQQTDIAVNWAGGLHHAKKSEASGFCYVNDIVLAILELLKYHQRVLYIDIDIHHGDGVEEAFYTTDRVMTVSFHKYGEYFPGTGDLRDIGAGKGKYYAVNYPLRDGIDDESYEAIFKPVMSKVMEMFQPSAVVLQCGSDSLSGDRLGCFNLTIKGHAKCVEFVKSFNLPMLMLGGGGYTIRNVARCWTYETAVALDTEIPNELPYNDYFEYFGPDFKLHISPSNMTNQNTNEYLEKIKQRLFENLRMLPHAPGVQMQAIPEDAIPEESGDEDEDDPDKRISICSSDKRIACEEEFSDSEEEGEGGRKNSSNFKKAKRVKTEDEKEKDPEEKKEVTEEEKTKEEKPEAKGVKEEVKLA

SMILES | IC50 [1] [nM] | IC50 [2] [nM]
Fc1ccc(C2(Nc3ncc(-c4nnc(C(F)F)o4)cn3)CC2)c(C(F)(F)F)c1 [Example 63, 5-(5-(difluoromethyl)-1,3,4-oxadiazol-2-yl)-N-(1-(4-fluoro-2-(trifluoromethyl)phenyl)cyclopropyl) pyrimidin-2-amine] | > 30000 | 88
FC(F)c1nnc(-c2cnc(NC3(c4ccc(Br)nc4)CC3)nc2)o1 [Example 64, N-(1-(6-bromopyridin-3-yl)cyclopropyl)-5-(5-(difluoromethyl)-1,3,4-oxadiazol-2-yl)pyrimidin-2-amine] | > 30000 | 28
FC(F)c1nnc(-c2cnc(NC3(c4cccnc4)CC3)nc2)o1 [Example 65, 5-(5-(difluoromethyl)-1,3,4-oxadiazol-2-yl)-N-(1-(pyridin-3-yl)cyclopropyl)pyrimidin-2-amine] | > 30000 | 390
Fc1cc(Cl)ccc1C1(Nc2ncc(-c3nnc(C(F)F)o3)cn2)CC1 [Example 66] | > 30000 | 42
Fc1ccc(C2(Nc3ncc(-c4nnc(C(F)F)o4)cn3)CC2)nc1 [Example 67, 5-(5-(difluoromethyl)-1,3,4-oxadiazol-2-yl)-N-(1-(5-fluoropyridin-2-yl)cyclopropyl) pyrimidin-2-amine] | > 30000 | 190
FC(F)c1nnc(-c2cnc(NC3(c4ccc(OCC(F)(F)F)cc4)CC3)nc2)o1 [Example 68, 5-(5-(difluoromethyl)-1,3,4-oxadiazol-2-yl)-N-(1-(4-(2,2,2-trifluoroethoxy)phenyl)cyclopropyl) pyrimidin-2-amine] | > 30000 | 100
CS(=O)(=O)NCc1ccc(C2(Nc3ncc(-c4nnc(C(F)F)o4)cn3)CC2)cc1 [Example 69, N-(4-(1-((5-(5-(difluoromethyl)-1,3,4-oxadiazol-2-yl)pyrimidin-2-yl)amino)cyclopropyl)benzyl) methanesulfonamide] | > 30000 | 130
Fc1cc(OC(F)(F)F)ccc1C1(Nc2ncc(-c3nnc(C(F)F)o3)cn2)CC1 [Example 70, 5-(5-(difluoromethyl)-1,3,4-oxadiazol-2-yl)-N-(1-(2-fluoro-4-(trifluoromethoxy)phenyl)cyclopropyl)pyrimidin-2-amine] | > 30000 | 100
Fc1cc(C(F)(F)F)ccc1C1(Nc2ncc(-c3nnc(C(F)F)o3)cn2)CC1 [Example 71, 5-(5-(difluoromethyl)-1,3,4-oxadiazol-2-yl)-N-(1-(2-fluoro-4-(trifluoromethyl)phenyl)cyclopropyl)pyrimidin-2-amine] | > 30000 | 100
Fc1cc(F)cc(C2(Nc3ncc(-c4nnc(C(F)F)o4)cn3)CC2)c1 [Example 72, 5-(5-(difluoromethyl)-1,3,4-oxadiazol-2-yl)-N-(1-(3,5-difluorophenyl)cyclopropyl) pyrimidin-2-amine] | > 30000 | 35
Fc1c(Cl)cccc1C1(Nc2ncc(-c3nnc(C(F)F)o3)cn2)CC1 [Example 73, N-(1-(3-chloro-2-fluorophenyl)cyclopropyl)-5-(5-(difluoromethyl)-1,3,4-oxadiazol-2-yl)pyrimidin-2-amine] | > 30000 | 17
Fc1cc(F)c(C2(Nc3ncc(-c4nnc(C(F)F)o4)cn3)CC2)c(F)c1 [Example 74, 5-(5-(difluoromethyl)-1,3,4-oxadiazol-2-yl)-N-(1-(2,4,6-trifluorophenyl)cyclopropyl) pyrimidin-2-amine] | > 30000 | 19
Fc1ccc(OC(F)(F)F)cc1C1(Nc2ncc(-c3nnc(C(F)F)o3)cn2)CC1 [Example 75, 5-(5-(difluoromethyl)-1,3,4-oxadiazol-2-yl)-N-(1-(2-fluoro-5-(trifluoromethoxy)phenyl)cyclopropyl)pyrimidin-2-amine] | > 30000 | 38
Fc1ccc(Cl)cc1C1(Nc2ncc(-c3nnc(C(F)F)o3)cn2)CC1 [Example 76, N-(1-(5-chloro-2-fluorophenyl)cyclopropyl)-5-(5-(difluoromethyl)-1,3,4-oxadiazol-2-yl)pyrimidin-2-amine] | > 30000 | 14
Cc1cccc(C2(Nc3ncc(-c4nnc(C(F)F)o4)cn3)CC2)c1Cl [Example 77, N-(1-(2-chloro-3-methylphenyl)cyclopropyl)-5-(5-(difluoromethyl)-1,3,4-oxadiazol-2-yl)pyrimidin-2-amine] | > 30000 | 28
O=C(NCC(Nc1ncc(-c2nnc(C(F)F)o2)cn1)c1ccc(F)cc1)c1ccccc1 (centres unmarked) [Example 79, N-(2-((5-(5-(difluoromethyl)-1,3,4-oxadiazol-2-yl)pyrimidin-2-yl)amino)-2-(4-fluorophenyl)ethyl)benzamide] | > 30000 | 76
Fc1ccc(Cl)c(C2(Nc3ncc(-c4nnc(C(F)F)o4)cn3)CC2)c1 [Example 80, N-(1-(2-chloro-5-fluorophenyl)cyclopropyl)-5-(5-(difluoromethyl)-1,3,4-oxadiazol-2-yl)pyrimidin-2-amine] | > 30000 | 23
FC(F)c1nnc(-c2cnc(NC3(c4cc(C(F)(F)F)ccc4Cl)CC3)nc2)o1 [Example 81, N-(1-(2-chloro-5-(trifluoromethyl)phenyl)cyclopropyl)-5-(5-(difluoromethyl)-1,3,4-oxadiazol-2-yl)pyrimidin-2-amine] | > 30000 | 210
FC(F)c1nnc(-c2cnc(NC3(c4ccnc(Br)c4)CC3)nc2)o1 [Example 82, N-(1-(2-bromopyridin-4-yl)cyclopropyl)-5-(5-(difluoromethyl)-1,3,4-oxadiazol-2-yl)pyrimidin-2-amine] | > 30000 | 35
N#Cc1cc(C2(Nc3ncc(-c4nnc(C(F)F)o4)cn3)CC2)ccn1 [Example 83, 4-(1-((5-(5-(difluoromethyl)-1,3,4-oxadiazol-2-yl)pyrimidin-2-yl)amino)cyclopropyl)picolinonitrile] | > 30000 | 160
Fc1cc(OCC(F)(F)F)ccc1C1(Nc2ncc(-c3nnc(C(F)F)o3)cn2)CC1 [Example 84, 5-(5-(difluoromethyl)-1,3,4-oxadiazol-2-yl)-N-(1-(2-fluoro-4-(2,2,2-trifluoroethoxy)phenyl)cyclopropyl)pyrimidin-2-amine] | > 30000 | 77
FC(F)c1nnc(-c2cnc(NC3(c4cccc(C(F)(F)F)c4Cl)CC3)nc2)o1 [Example 85, N-(1-(2-chloro-3-(trifluoromethyl)phenyl)cyclopropyl)-5-(5-(difluoromethyl)-1,3,4-oxadiazol-2-yl)pyrimidin-2-amine] | > 30000 | 62
FC(F)Oc1cccc(C2(Nc3ncc(-c4nnc(C(F)F)o4)cn3)CC2)c1Cl [Example 86, N-(1-(2-chloro-3-(difluoromethoxy)phenyl)cyclopropyl)-5-(5-(difluoromethyl)-1,3,4-oxadiazol-2-yl)pyrimidin-2-amine] | > 30000 | 28
FC(F)c1nnc(-c2cnc(NC3(c4cccc(OCC(F)(F)F)c4Cl)CC3)nc2)o1 [Example 87, N-(1-(2-chloro-3-(2,2,2-trifluoroethoxy)phenyl)cyclopropyl)-5-(5-(difluoromethyl)-1,3,4-oxadiazol-2-yl)pyrimidin-2-amine] | > 30000 | 120
Fc1ccc(C2(Nc3ncc(-c4nnc(C(F)F)o4)cn3)CCC2)cc1 [Example 88] | > 30000 | 29
